For the first test, the target named is c-Src kinase domain (Homo sapiens, UniProt P12931). As to the kind of experiment: pTyr-Var library bacterial peptide display kinase screen (enrichment scores). Format: biochemical.
Conditions: not given
Regarding FSQETYFRVSN [ABCD1_Y180_Q178E_YF], the Screen is given as 0.7032.

Staying with this test, now noted: sheet "Src"; effect of the variant peptide relative to its reference peptide in the pTyr-Var library screen.
For the sequence EFFDGYWEFSV [ITGA2B_Y265_G267E_YF], the Screen was found to be 0.01389.

PQEVMYAQLDH [KIR3DL2_Y398_T397M] had a Screen of -0.9154.

Regarding HFMELYDLNRD [BBS2_Y648_R643H_YF], the Screen is 1.185.

For the sequence KQMEQYMSFHK [HCN1_Y417_V414M], the Screen turned out to be 0.2609.

HLTLVYGGIFL [FBP1_Y259_R255L] had a Screen of -0.5188.

In turn, EGDGVYTLNDE [HP_Y125_N129D] displayed a Screen of -0.1677.

SSEILYHIIKG [CDH17_Y489_K486E]: the Screen is on record as 3.183.

For ENELTYFCFKK [CD59_Y86_C89Y_YF], the Screen is listed as 1.06.

Consider HILFRYPKEFQ [IDS_Y234_P231L], for which the Screen is on record as 0.8356.

Turning to LITTPYIGFLG [KCNQ1_Y267_L266P], the Screen is -1.29.

Consider IFGVSYGEFRF [CFTR_Y512_D513G_YF], for which the Screen is recorded as 1.211.

In turn, PADCRYFTFPQ [GAMT_Y222_A224T_YF] had a Screen of 0.8198.

On to PSPMPYAFCQM [FOXL2_Y215_S217F], for which the Screen worked out at 1.188.

For the sequence FTGDIYSSSNL [LZTR1_Y141_N143S_YF], the Screen was -0.3427.

In turn, RSSNTYTLMDV [ALCAM_Y298_T301M] registered a Screen of -0.02147.

PINLFYLMDLS [ITGB2_Y131_D128N_YF] came in with a Screen of -0.4123.

SVGGCYEQLFV [MC4R_Y41_D37V]: the Screen is recorded as -0.5254.

Still in this test, the particulars now being: sheet "Src"; variant peptide versus its reference peptide in the pTyr-Var library screen.
With PMWHPYKADVT [TP53TG5_Y255_V257A], the Screen is on record as -1.569.

Turning to SVESPYGSVTF [NDRG2_Y47_T45S], the Screen was 0.3806.

The sequence EVTRLYGSVCD [TC2N_Y154_K151T] showed a Screen of 2.081.

The sequence DAVCFYRMENA [NPHS2_Y195_I192V_YF] registered a Screen of 0.05721.

Sequence REVPVYISEDS [SYNM_Y460_G462S] showed a Screen of 1.666.

Regarding LIGTPYWMAPE [PAK5_Y608_V604I], the Screen is on record as -0.06712.

NTGDDYDLFGG [PTPN11_Y63_Y62D_YF] returned a Screen of -2.136.

Turning to SWSTSYSGFRC [NKAPL_Y91_Y96C_YF], the Screen is recorded as -0.8065.

Sequence SEKVVYQRFTE [NCF1_Y41_R42Q] gave a Screen of 2.147.

For ISRDVYSTDFF [NTRK2_Y702_M697I_YF], the Screen was determined as 0.05631.

In turn, VDTPMYATMQR [TPO_Y55_A53P] came in with a Screen of -0.2543.

In turn, TEDELYQLFLQ [RASGRP2_Y378_S381F] showed a Screen of 1.657.

In turn, PVDGEYFTLQI [TP53_Y327_L323V] had a Screen of -0.1089.

PNLILYGDFRQ [MYH7_Y715_R712L] displayed a Screen of -0.8884.

The sequence TVSQPYSFIEF [SEC22B_Y110_R108Q] had a Screen of 0.852.

The next test concerns the target T1, c-Abl kinase domain (Mus musculus, UniProt P00520).
T1 sequence (P00520 242-493 limits assumed): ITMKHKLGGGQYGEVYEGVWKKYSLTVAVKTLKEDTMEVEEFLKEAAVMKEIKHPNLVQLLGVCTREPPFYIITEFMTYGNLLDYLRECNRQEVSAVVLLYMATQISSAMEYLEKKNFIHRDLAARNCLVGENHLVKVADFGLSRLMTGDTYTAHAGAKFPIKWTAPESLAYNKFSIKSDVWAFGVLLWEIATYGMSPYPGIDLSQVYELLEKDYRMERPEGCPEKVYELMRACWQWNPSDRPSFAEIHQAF
Described as above. Type of test: biochemical. The following applies: fig5-data2, sheet "Abl"; Screen for the variant/reference peptide pair, pTyr-Var library.
ELTTCYRKKCS [CCBE1_Y70_C75S] showed a Screen of -0.6974.

The sequence EAIMTYVSSFF [ACTN4_Y260_K255E_YF] came in with a Screen of -1.004.

MSDVPYVMNRG [ACAT1_Y161_N158D] displayed a Screen of 0.04557.

In turn, HFVDEYDRTIE [KRAS_Y32_P34R] gave a Screen of 1.156.

Turning to FMGVEYSSCDT [EPHA3_Y937_T933M], the Screen was -2.367.

QHVPDYRQNGF [PCDHGA6_Y891_V895G_YF] showed a Screen of 0.1057.

Regarding VWHRRYKHTHE [CTCF_Y343_R339W], the Screen is recorded as -0.9062.

DEWFLYKMRDI [CPS1_Y879_K875E] showed a Screen of -2.954.

GGPAGYLWRAS [PKLR_Y38_R40W] displayed a Screen of 0.4229.

The sequence NFPGGYSGSVK [MCPH1_Y606_L602F] yielded a Screen of 0.06785.

Sequence GFPVHYTGVSN [DNMT3B_Y815_D817G] returned a Screen of 0.7985.

The sequence CPASVYTKRCS [CPT2_Y508_R503C] came in with a Screen of -1.448.

With RSSGGYEPRGC [FUS_Y239_R244C], the Screen is on record as -2.404.

As for TLGPFYPSLLF [CRYAA_Y18_R21L], the Screen came out at 1.059.

In turn, LDPDSYNVFEN [FOXC1_Y159_M161V] registered a Screen of -0.1184.

Take RVFRDYVLKSA [HTATIP2_Y111_D108Y_YF]: the Screen was -1.327.

On to RQIQSYTCEID [DES_Y331_H326R], for which the Screen came to 0.08274.

In turn, LDTSQYFRLFN [CPT2_Y217_M214T] yielded a Screen of -0.04852.

For INMKEYCKKDF [NTN1_Y490_K489E_YF], the Screen stood at 0.9886.

Take WNDPDYMDSRR [GAA_Y407_L405P]: the Screen is -1.862.

The test is the same for the next values; noted with them: sheet "Abl"; effect of variant peptide relative to its reference peptide in pTyr-Var library screen (enrichment).
In turn, VLAAQYTTVGR [SGSH_Y240_D235V] yielded a Screen of 1.42.

VPVPGYTKVPE [SPRR3_Y146_L149V] registered a Screen of 2.059.

On to NWGSPYKSDGC [ZNF347_Y261_N264D], for which the Screen turned out to be 3.66.

Sequence VVRSLYEDLED [VHL_Y185_I180V] displayed a Screen of -2.047.

VCDALYPPGPP [TTN_Y25928_A25923V] registered a Screen of -1.728.

For KTSGNYLPVTG [WDR19_Y28_A30P], the Screen is recorded as -2.37.

As to GLQDEYDFKCK [STAT1_Y170_D165G], the Screen was -1.133.

As for CHKRTYKVTGL [TTN_Y21853_C21851R], the Screen is given as -1.801.

Sequence ETKTPYTVILI [SBDS_Y128_R126T] came in with a Screen of 0.2291.

Take CHSDDYVHISI [TSC1_Y406_L411I]: the Screen was -1.634.

The sequence AKLDIYKRKVE [VWA3B_Y918_N916D] gave a Screen of 4.352.

With AERKLYRNVML [ZNF569_Y33_Q29E], the Screen is 1.464.

Regarding RTTIHYNFMCN [TP53_Y234_C229R_YF], the Screen came out at 1.254.

Consider AELKLYSGAQT [ZAP70_Y178_R175L], for which the Screen is reported as -2.646.

A further test has as its system Fer kinase domain. The description is as above. Type of test: biochemical, mouse. The following applies: sheet "Fer"; value of the variant peptide against its reference peptide in the pTyr-Var library screen with Fer.
In turn, GHPFAYDWISI [BEST1_Y227_L224P_YF] had a Screen of -0.03554.

Consider VHLFAYDWISI [BEST1_Y227_G222V_YF], for which the Screen was -0.5402.

For PQEVMYAQLDH [KIR3DL2_Y398_T397M], the Screen is listed as 0.4165.

Take SVESPYGSVTF [NDRG2_Y47_T45S]: the Screen turned out to be 0.8943.

Take LTELGYSFVTT [ACTA1_Y200_R198L]: the Screen was 0.9203.

Take PFSSPYENSLI [EPOR_Y489_N487S_YF]: the Screen amounted to 0.2958.

Regarding IFGVSYGEFRF [CFTR_Y512_D513G_YF], the Screen was -1.628.

For SRDDFYETIAM [NPY1R_Y347_D346Y_YF], the Screen amounted to 2.699.

Turning to GHMFAYDWISI [BEST1_Y227_L224M_YF], the Screen was -0.1339.

SWSTSYSGFRC [NKAPL_Y91_Y96C_YF] yielded a Screen of -1.554.

For the sequence PSPMPYAFCQM [FOXL2_Y215_S217F], the Screen was 3.3.

As for FTGDIYSSSNL [LZTR1_Y141_N143S_YF], the Screen was -0.3328.

With LKVQVYILGRE [ASS1_Y359_G356V], the Screen is listed as 1.05.

KKDGPYDVVVL [PARK7_Y67_E64D] showed a Screen of -0.9233.

On to SVGGCYEQLFV [MC4R_Y41_D37V], for which the Screen is -0.4465.

The same test, now with this note: sheet "Fer"; variant peptide relative to its reference peptide, pTyr-Var library screen enrichment.
For TLERHYKELQA [SPTBN2_Y834_E835K], the Screen is reported as -2.093.

On to NTGDDYDLFGG [PTPN11_Y63_Y62D_YF], for which the Screen is recorded as -1.594.

The sequence TEDELYQLFLQ [RASGRP2_Y378_S381F] came in with a Screen of 1.535.

Regarding TVSQPYSFIEF [SEC22B_Y110_R108Q], the Screen turned out to be 0.7571.

SVVVHYEPPEV [TP53_Y220_P219H] displayed a Screen of 1.725.

In turn, AAVPAYDKIQV [STXBP2_Y401_R405Q] showed a Screen of 1.488.

The record behind these values is PMC10065799, “High-throughput profiling of sequence recognition by tyrosine kinases and SH2 domains using bacterial peptide display” (eLife, 2023).
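Further: log2 fold change in enrichment of variant over reference.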
